Legend:
[1] = Cytotoxicity against mouse RAW264.7 cells assessed as cell viability at 40 uM measured after 24 hrs by MTT assay relative to control; format: toxicity, cell-based; details: read-out: Activity
RAW264.7 [2] = experiment: Anti inflammatory activity in LPS-induced mouse RAW264.7 cells assessed as inhibition of NO production at 5 uM preincubated with compound for 2 hrs followed by LPS stimulation and measured after 24 hrs by griess reagent based assay relative to control; format: functional; details: time 26 hrs
RAW264.7 [3] = experiment: Anti inflammatory activity in LPS-induced mouse RAW264.7 cells assessed as inhibition of NO production at 2.5 uM preincubated with compound for 2 hrs followed by LPS stimulation and measured after 24 hrs by griess reagent based assay relative to control; format: functional; details: time 26 hrs
RAW264.7 [4] = experiment: Anti inflammatory activity in LPS-induced mouse RAW264.7 cells assessed as inhibition of NO production preincubated with compound for 2 hrs followed by LPS stimulation and measured after 24 hrs by griess reagent based assay; format: functional, cell-based

## CC(=O)O[C@H]1C[C@@]2(C)[C@@H](C[C@@H](O)[C@H]3[C@@]4(C)CC[C@@H](OC(=O)c5ccccc5C(=O)n5ccnc5)[C@@H](C)[C@@H]4CC[C@@]32C)/C1=C(\CCC=C(C)C)C(=O)OCc1ccccc1
[1]
  viability at 24 h, 40 µM: 59.5%

## CC(=O)O[C@H]1C[C@@]2(C)[C@@H](C[C@@H](O)[C@H]3[C@@]4(C)CC[C@@H](OC(=O)CCSSCCC(=O)NOc5ccc([N+](=O)[O-])cc5)[C@@H](C)[C@@H]4CC[C@@]32C)/C1=C(\CCC=C(C)C)C(=O)OCc1ccccc1
RAW264.7 [2]
  inhibition at 5 µM: 28.4%
RAW264.7 [3]
  inhibition at 2.5 µM: 14.9%
[1]
  viability at 24 h, 40 µM: 103%

## C=CCONC(=O)/C(CCC=C(C)C)=C1\[C@@H](OC(C)=O)C[C@@]2(C)[C@H]1C[C@@H](O)[C@H]1[C@@]3(C)CC[C@@H](O)[C@@H](C)[C@@H]3CC[C@@]12C
RAW264.7 [2]
  inhibition at 5 µM: 21.3%
RAW264.7 [3]
  inhibition at 2.5 µM: 17.7%
[1]
  viability at 24 h, 40 µM: 90.8%

## CC(=O)O[C@H]1C[C@@]2(C)[C@@H](C[C@@H](O)[C@H]3[C@@]4(C)CC[C@@H](O)[C@@H](C)[C@@H]4CC[C@@]32C)/C1=C(\CCC=C(C)C)C(=O)O [FUSIDIC ACID]
RAW264.7 [2]
  inhibition at 5 µM: 14.9%
RAW264.7 [3]
  inhibition at 2.5 µM: 2.18%
[1]
  viability at 24 h, 40 µM: 91.3%

## CC(=O)O[C@H]1C[C@@]2(C)[C@@H](C[C@@H](O)[C@H]3[C@@]4(C)CC[C@@H](O)[C@@H](C)[C@@H]4CC[C@@]32C)/C1=C(\CCC=C(C)C)C(=O)NOC1CCCCO1 (some centres not stated)
[1]
  viability at 24 h, 40 µM: 2.83%

## CC(=O)O[C@H]1C[C@@]2(C)[C@@H](C[C@@H](O)[C@H]3[C@@]4(C)CC[C@@H](OC(=O)c5ccccc5C(=O)NOc5ccc([N+](=O)[O-])cc5)[C@@H](C)[C@@H]4CC[C@@]32C)/C1=C(\CCC=C(C)C)C(=O)OCc1ccccc1
[1]
  viability at 24 h, 40 µM: 1.66%

## CONC(=O)CCSSCCC(=O)O[C@@H]1CC[C@@]2(C)[C@@H](CC[C@@]3(C)[C@H]2[C@H](O)C[C@H]2/C(=C(\CCC=C(C)C)C(=O)OCc4ccccc4)[C@@H](OC(C)=O)C[C@@]23C)[C@@H]1C
[1]
  viability at 24 h, 40 µM: 2.32%

## C=CCONC(=O)c1ccccc1C(=O)O[C@@H]1CC[C@@]2(C)[C@@H](CC[C@@]3(C)[C@H]2[C@H](O)C[C@H]2/C(=C(\CCC=C(C)C)C(=O)OCc4ccccc4)[C@@H](OC(C)=O)C[C@@]23C)[C@@H]1C
RAW264.7 [2]
  inhibition at 5 µM: 39.3%
RAW264.7 [3]
  inhibition at 2.5 µM: 24.7%
[1]
  viability at 24 h, 40 µM: 101%
RAW264.7 [4]
  IC50: 8.92 µM

## CCN1CCN(C(=O)c2ccccc2C(=O)O[C@@H]2CC[C@@]3(C)[C@@H](CC[C@@]4(C)[C@H]3[C@H](O)C[C@H]3/C(=C(\CCC=C(C)C)C(=O)OCc5ccccc5)[C@@H](OC(C)=O)C[C@@]34C)[C@@H]2C)CC1
[1]
  viability at 24 h, 40 µM: 5.62%

## CC(=O)O[C@H]1C[C@@]2(C)[C@@H](C[C@@H](O)[C@H]3[C@@]4(C)CC[C@@H](OC(=O)c5ccccc5C(=O)n5cccn5)[C@@H](C)[C@@H]4CC[C@@]32C)/C1=C(\CCC=C(C)C)C(=O)OCc1ccccc1
[1]
  viability at 24 h, 40 µM: 76.6%

## CC(=O)O[C@H]1C[C@@]2(C)[C@@H](C[C@@H](O)[C@H]3[C@@]4(C)CC[C@@H](OC(=O)c5ccccc5C(=O)NOC(C)(C)C)[C@@H](C)[C@@H]4CC[C@@]32C)/C1=C(\CCC=C(C)C)C(=O)OCc1ccccc1
RAW264.7 [2]
  inhibition at 5 µM: 25.9%
RAW264.7 [3]
  inhibition at 2.5 µM: 13.5%
[1]
  viability at 24 h, 40 µM: 98.3%

## CON(C)C(=O)c1ccccc1C(=O)O[C@@H]1CC[C@@]2(C)[C@@H](CC[C@@]3(C)[C@H]2[C@H](O)C[C@H]2/C(=C(\CCC=C(C)C)C(=O)OCc4ccccc4)[C@@H](OC(C)=O)C[C@@]23C)[C@@H]1C
RAW264.7 [2]
  inhibition at 5 µM: 44.5%
RAW264.7 [3]
  inhibition at 2.5 µM: 24%
[1]
  viability at 24 h, 40 µM: 100%
RAW264.7 [4]
  IC50: 6.92 µM

## CC(=O)O[C@H]1C[C@@]2(C)[C@@H](C[C@@H](O)[C@H]3[C@@]4(C)CC[C@@H](O)[C@@H](C)[C@@H]4CC[C@@]32C)/C1=C(\CCC=C(C)C)C(=O)NOc1ccc([N+](=O)[O-])cc1[N+](=O)[O-]
[1]
  viability at 24 h, 40 µM: 15.2%

## CC(=O)O[C@H]1C[C@@]2(C)[C@@H](C[C@@H](O)[C@H]3[C@@]4(C)CC[C@@H](O)[C@@H](C)[C@@H]4CC[C@@]32C)/C1=C(\CCC=C(C)C)C(=O)NOCc1ccccc1
[1]
  viability at 24 h, 40 µM: 0.07%

## O=C(Nc1ccc(I)cc1)c1ccc([N+](=O)[O-])o1
RAW264.7 [4]
  IC50: 1.14 µM

## CC(=O)O[C@H]1C[C@@]2(C)[C@@H](C[C@@H](O)[C@H]3[C@@]4(C)CC[C@@H](O)[C@@H](C)[C@@H]4CC[C@@]32C)/C1=C(\CCC=C(C)C)C(=O)NOc1ccc([N+](=O)[O-])cc1
[1]
  viability at 24 h, 40 µM: 56.5%

## CC(=O)O[C@H]1C[C@@]2(C)[C@@H](C[C@@H](O)[C@H]3[C@@]4(C)CC[C@@H](OC(=O)c5ccccc5C(=O)N5CCOCC5)[C@@H](C)[C@@H]4CC[C@@]32C)/C1=C(\CCC=C(C)C)C(=O)OCc1ccccc1
RAW264.7 [2]
  inhibition at 5 µM: 44.5%
RAW264.7 [3]
  inhibition at 2.5 µM: 28.4%
[1]
  viability at 24 h, 40 µM: 102%
RAW264.7 [4]
  IC50: 7.61 µM

## CC(=O)O[C@H]1C[C@@]2(C)[C@@H](C[C@@H](O)[C@H]3[C@@]4(C)CC[C@@H](OC(=O)CCSSCCC(=O)N(O)C5CCCCC5)[C@@H](C)[C@@H]4CC[C@@]32C)/C1=C(\CCC=C(C)C)C(=O)OCc1ccccc1
[1]
  viability at 24 h, 40 µM: 80.1%

## CON(C)C(=O)/C(CCC=C(C)C)=C1\[C@@H](OC(C)=O)C[C@@]2(C)[C@H]1C[C@@H](O)[C@H]1[C@@]3(C)CC[C@@H](O)[C@@H](C)[C@@H]3CC[C@@]12C
[1]
  viability at 24 h, 40 µM: 55.5%

## CC(=O)O[C@H]1C[C@@]2(C)[C@@H](C[C@@H](O)[C@H]3[C@@]4(C)CC[C@@H](O)[C@@H](C)[C@@H]4CC[C@@]32C)/C1=C(\CCC=C(C)C)C(=O)NOC(=O)c1ccc([N+](=O)[O-])cc1
[1]
  viability at 24 h, 40 µM: 70.8%

## CONC(=O)c1ccccc1C(=O)O[C@@H]1CC[C@@]2(C)[C@@H](CC[C@@]3(C)[C@H]2[C@H](O)C[C@H]2/C(=C(\CCC=C(C)C)C(=O)OCc4ccccc4)[C@@H](OC(C)=O)C[C@@]23C)[C@@H]1C
RAW264.7 [2]
  inhibition at 5 µM: 27%
RAW264.7 [3]
  inhibition at 2.5 µM: 17.3%
[1]
  viability at 24 h, 40 µM: 106%

## CC(=O)O[C@H]1C[C@@]2(C)[C@@H](C[C@@H](O)[C@H]3[C@@]4(C)CC[C@@H](OC(=O)c5ccccc5C(=O)NOCc5ccccc5)[C@@H](C)[C@@H]4CC[C@@]32C)/C1=C(\CCC=C(C)C)C(=O)OCc1ccccc1
RAW264.7 [2]
  inhibition at 5 µM: 11%
RAW264.7 [3]
  inhibition at 2.5 µM: 8.93%
[1]
  viability at 24 h, 40 µM: 96%

## CC(=O)O[C@H]1C[C@@]2(C)[C@@H](C[C@@H](O)[C@H]3[C@@]4(C)CC[C@@H](OC(=O)c5ccccc5C(=O)N5CCN(C)CC5)[C@@H](C)[C@@H]4CC[C@@]32C)/C1=C(\CCC=C(C)C)C(=O)OCc1ccccc1
RAW264.7 [2]
  inhibition at 5 µM: 14.7%
RAW264.7 [3]
  inhibition at 2.5 µM: 8.43%
[1]
  viability at 24 h, 40 µM: 108%

## CC(=O)O[C@H]1C[C@@]2(C)[C@@H](C[C@@H](O)[C@H]3[C@@]4(C)CC[C@@H](OC(=O)CCSSCCC(=O)NOCc5ccccc5)[C@@H](C)[C@@H]4CC[C@@]32C)/C1=C(\CCC=C(C)C)C(=O)OCc1ccccc1
RAW264.7 [2]
  inhibition at 5 µM: 12.5%
RAW264.7 [3]
  inhibition at 2.5 µM: 8.17%
[1]
  viability at 24 h, 40 µM: 98.4%

## CC(=O)O[C@H]1C[C@@]2(C)[C@@H](C[C@@H](O)[C@H]3[C@@]4(C)CC[C@@H](OC(=O)CCSSCCC(=O)NOC(=O)c5ccc([N+](=O)[O-])cc5)[C@@H](C)[C@@H]4CC[C@@]32C)/C1=C(\CCC=C(C)C)C(=O)OCc1ccccc1
RAW264.7 [2]
  inhibition at 5 µM: 44.8%
RAW264.7 [3]
  inhibition at 2.5 µM: 33.3%
[1]
  viability at 24 h, 40 µM: 91%
RAW264.7 [4]
  IC50: 10 µM

## CC(=O)O[C@H]1C[C@@]2(C)[C@@H](C[C@@H](O)[C@H]3[C@@]4(C)CC[C@@H](OC(=O)CCSSCCC(=O)NOC(C)(C)C)[C@@H](C)[C@@H]4CC[C@@]32C)/C1=C(\CCC=C(C)C)C(=O)OCc1ccccc1
[1]
  viability at 24 h, 40 µM: 76%

## CC(=O)O[C@H]1C[C@@]2(C)[C@@H](C[C@@H](O)[C@H]3[C@@]4(C)CC[C@@H](O)[C@@H](C)[C@@H]4CC[C@@]32C)/C1=C(\CCC=C(C)C)C(=O)NOC(C)(C)C
[1]
  viability at 24 h, 40 µM: 84.3%

## CC(=O)O[C@H]1C[C@@]2(C)[C@@H](C[C@@H](O)[C@H]3[C@@]4(C)CC[C@@H](OC(=O)c5ccccc5C(=O)NOC5CCCCO5)[C@@H](C)[C@@H]4CC[C@@]32C)/C1=C(\CCC=C(C)C)C(=O)OCc1ccccc1 (some centres not stated)
RAW264.7 [2]
  inhibition at 5 µM: 19.4%
RAW264.7 [3]
  inhibition at 2.5 µM: 7.93%
[1]
  viability at 24 h, 40 µM: 94.1%

## CONC(=O)/C(CCC=C(C)C)=C1\[C@@H](OC(C)=O)C[C@@]2(C)[C@H]1C[C@@H](O)[C@H]1[C@@]3(C)CC[C@@H](O)[C@@H](C)[C@@H]3CC[C@@]12C
RAW264.7 [2]
  inhibition at 5 µM: 18.3%
RAW264.7 [3]
  inhibition at 2.5 µM: 16.5%
[1]
  viability at 24 h, 40 µM: 91.4%

## CC(=O)O[C@H]1C[C@@]2(C)[C@@H](C[C@@H](O)[C@H]3[C@@]4(C)CC[C@@H](OC(=O)CCSSCCC(=O)N(C)O)[C@@H](C)[C@@H]4CC[C@@]32C)/C1=C(\CCC=C(C)C)C(=O)OCc1ccccc1
[1]
  viability at 24 h, 40 µM: 48.8%

Source: ChEMBL document CHEMBL5247586, “Discovery of fusidic acid derivatives as novel STING inhibitors for treatment of sepsis” (Eur J Med Chem, 2022)
